Assay results published in patent publication US20100144891A1, “USE OF CYCLOHEXANEHEXOL DERIVATIVES IN THE TREATMENT OF AMYOTROPHIC LATERAL SCLEROSIS” (priority 2007, published 2010).
Entries after “also recorded” stand apart in the source; their conditions may differ.

Legend:
[1] = system: folate-resistant mouse neural tube defects; conditions: compared with myo-inositol; cited from earlier work
[2] = system: cytidine monophosphorylphosphatidate; conditions: cited from earlier work
[3] = target: Apo-wild type SOD1 protein (Homo sapiens, UniProt P00441); experiment: Trifluoroethanol-induced aggregation of Apo-wild type SOD1, thioflavin T signal; format: biochemical; conditions: SOD1:scyllo-inositol 1:20, 15 minute incubation
Chain of Apo-wild type SOD1 protein (P00441 whole entry): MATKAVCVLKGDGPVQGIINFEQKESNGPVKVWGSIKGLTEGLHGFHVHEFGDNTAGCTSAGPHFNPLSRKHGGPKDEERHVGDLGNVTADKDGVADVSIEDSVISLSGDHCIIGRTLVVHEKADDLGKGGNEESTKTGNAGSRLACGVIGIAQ
Experimental: FIG. 3. ApoSOD aggregation-Trifluoroethanol-induced aggregation of Apo-wild type SOD1 protein in the presence and absence of scyllo-inositol after a 15 minute incubation. The thioflavin T signal increases in the presence of scyllo-inositol. Untreated (blue) and SOD1:scyllo-inositol ratio of 1:20(yellow). Inositol related compounds were screened in aggregation assays of apo-SOD1 and the following SOD1 mutants, […] and […]. The […] mutant was chosen for its fast aggregation kinetics, while the […] is intermediary between […] and the slow kinetics of apo-SOD1 (Stathopulos, P. B., et al. (2006) J. Biol. Chem. 281, 6184-6193). Using trifluoroethanol (TFE)-induced aggregation, all three SOD1 proteins aggregate maximally within a 2 hour window (Stathopulos P B, et al. (2003) Proc Natl Acad Soc USA. 100:7021-7026). […] The results were confirmed using a bis-ANS assay that determines the exposure of hydrophobic faces on proteins, as aggregation occurs dye binding to SOD1 should increase ([…], Cunningham P, et al (2002) J Biol. Chem. 277:47551-46556). In the presence of scyllo-inositol, the bis-ANS signal was lower than when protein was incubated alone.

[4] = target: T1, SOD1 G93V protein (Homo sapiens, UniProt P00441, G94V); experiment: Trifluoroethanol (TFE)-induced SOD1 aggregation, thioflavin T (ThT) fluorescence; format: biochemical; conditions: SOD1:scyllo-inositol ratio 1:1, 1:10, 1:20 vs untreated
T1 sequence (P00441 whole entry G94V): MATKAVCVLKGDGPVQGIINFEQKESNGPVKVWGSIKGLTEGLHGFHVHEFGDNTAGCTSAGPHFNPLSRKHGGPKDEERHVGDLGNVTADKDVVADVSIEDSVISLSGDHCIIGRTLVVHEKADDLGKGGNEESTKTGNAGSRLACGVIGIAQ
From the text: (§1) FIG. 1. Aggregation of SOD1 […] protein in the presence and absence of scyllo-inositol. […] Untreated (blue), SOD1:scyllo-inositol ratio of 1:1 (blue), 1:10 (pink) and 1:20(yellow). […] Inositol related compounds were screened in aggregation assays of apo-SOD1 and the following SOD1 mutants, […] and […]. The […] mutant was chosen for its fast aggregation kinetics, while the […] is intermediary between […] and the slow kinetics of apo-SOD1 (Stathopulos, P. B., et al. (2006) J. Biol. Chem. 281, 6184-6193). Using trifluoroethanol (TFE)-induced aggregation, all three SOD1 proteins aggregate maximally within a 2 hour window (Stathopulos P B, et al. (2003) Proc Natl Acad Soc USA. 100:7021-7026). […] The results were confirmed using a bis-ANS assay that determines the exposure of hydrophobic faces on proteins, as aggregation occurs dye binding to SOD1 should increase ([…], Cunningham P, et al (2002) J Biol. Chem. 277:47551-46556). In the presence of scyllo-inositol, the bis-ANS signal was lower than when protein was incubated alone.

[5] = system: SOD1G93A; experiment: Negative stain electron microscopy of SOD1 aggregates/fibres; format: biochemical; conditions: vs control samples / SOD1 incubated alone
[6] = target: T1, SOD1 G93V protein; experiment: bis-ANS assay (exposure of hydrophobic faces on SOD1); format: biochemical; conditions: in the presence of scyllo-inositol vs protein incubated alone
From the text: as §1

[7] = target: apo-SOD1 G93S protein (Homo sapiens, UniProt P00441, G94S); experiment: Trifluoroethanol-induced aggregation of apo-SOD1 G93S, thioflavin T signal; format: biochemical; conditions: SOD1:scyllo-inositol 1:20, as a function of time
Chain of apo-SOD1 G93S protein (P00441 whole entry G94S): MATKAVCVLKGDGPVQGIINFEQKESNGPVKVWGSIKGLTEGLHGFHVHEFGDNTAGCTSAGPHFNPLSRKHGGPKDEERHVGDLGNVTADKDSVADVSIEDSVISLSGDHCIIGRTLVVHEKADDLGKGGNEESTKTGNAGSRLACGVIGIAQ
From the text: FIG. 4. ApoSOD1 G93S mutant aggregation—Trifluoroethanol-induced aggregation of apo-SOD1 G93S protein in the presence and absence of scyllo-inositol as a function of time. […] Untreated (blue) and SOD1:scyllo-inositol ratio of 1:20(yellow).
(§2) Inositol related compounds were screened in aggregation assays of apo-SOD1 and the following SOD1 mutants, G93V and G93S. The G93V mutant was chosen for its fast aggregation kinetics, while the G93S is intermediary between G93V and the slow kinetics of apo-SOD1 (Stathopulos, P. B., et al. (2006) J. Biol. Chem. 281, 6184-6193). Using trifluoroethanol (TFE)-induced aggregation, all three SOD1 proteins aggregate maximally within a 2 hour window (Stathopulos P B, et al. (2003) Proc Natl Acad Soc USA. 100:7021-7026). […] The results were confirmed using a bis-ANS assay that determines the exposure of hydrophobic faces on proteins, as aggregation occurs dye binding to SOD1 should increase (Rakhit R, Cunningham P, et al (2002) J Biol. Chem. 277:47551-46556). In the presence of scyllo-inositol, the bis-ANS signal was lower than when protein was incubated alone.

[8] = system: Tg SOD1 G37R mice; experiment: Foot print analyses of gait in ALS mouse model; format: in vivo
Experimental: (§3) FIG. 2. Motor function of TgSOD1 G37R mice treated or untreated with scyllo-inositol was evaluated using the Rotarod and footprint analyses of gait. […] Stride length 37±2 mm for treated and 18±2 mm for untreated mice (p<0.001). […] Mice were untreated (n=5) or treated with scyllo-inositol (n=5) in drinking water ad libitum from 6.5 months of age and are ongoing at 12 months. Starting at 7.5 months of age, mice underwent weekly evaluation of motor function using the Rotarod test. Mice were given three consecutive trials and the mean time to fall was calculated. […] At 12 months of age, two treated mice were still remaining on the rotarod for >50 sec; untreated mice lost this ability at 11 months of age. […] Scyllo-inositol treatment maintained gait with treated 37±2 versus 18±2 mm stride length in Tg mice (p<0.001).

[9] = system: Tg SOD1 G37R mice; experiment: Rotarod test of motor function in ALS mouse model; format: in vivo
Experimental: as §3

[10] = system: apoSOD1 and mutant SOD1; experiment: Time course study of ThT signal (kinetics of assembly of SOD1 aggregates); format: biochemical; conditions: in the presence of scyllo-inositol
Experimental: as §2, with “G93V” left out, “[…].” for “G93S.”, “G93S” left out, “([…],” for “(Rakhit R,”

## OC1C(O)C(O)C(O)C(O)C1O [D-chiro-inositol]
[1]
  prevention of folate-resistant neural tube defects: more effective than myo-inositol

## OC1C(O)C(O)C(O)C(O)C1O (stereo not drawn) [Epi-inositol, epi-inositol]
[2]
  reversing lithium effects on cytidine monophosphorylphosphatidate: effective

## O[C@H]1[C@H](O)[C@@H](O)[C@H](O)[C@@H](O)[C@@H]1O [scyllo-inositol]
[3]
  Thioflavin T signal / trifluoroethanol-induced aggregation: increases
[4]
  Thioflavin T (ThT) fluorescence signal: increased; also recorded: increases in a scyllo-inositol concentration dependent manner
[5]
  number of SOD1 aggregates/fibres (negative stain electron microscopy): decreased; also recorded: no fibres were detected
[6]
  bis-ANS signal: lower; also recorded: decreases
[7]
  Thioflavin T signal / trifluoroethanol-induced aggregation: increased; also recorded: increases in the presence of scyllo-inositol to a greater extent than in apo-SOD1 G93S protein alone
[8]; treated Tg SOD1 G37R mice, untreated 18±2 mm, p<0.001
  stride length: 37±2 mm
[8]; treated versus untreated Tg mice
  gait (foot print analyses): maintained
[9]; Tg SOD1 G37R mice, scyllo-inositol in drinking water ad libitum from 6.5 months of age, untreated 10.1±0.06
  onset of disease: 10.6±0.22 months
[9]; at 12 months of age, two treated mice, untreated mice lost this ability at 11 months
  time remaining on the rotarod: > 50 s
[9]; treated vs untreated Tg SOD1 G37R mice, p=0.029
  motor function on the rotarod (latency to fall): improvement; also recorded: significantly better
[10]
  kinetics of assembly of SOD1 aggregates: greatly reduced; also recorded: most effective compound
